From patent US20100204275A1 (published 2010)
Where a name gives a salt, the structure may show the parent alone.

Compound | melting point [°C]
CCC(=O)N(CC1CCNCC1)c1ccc2cc(OC)ccc2c1.O=C(O)C(F)(F)F | 168 to 170
COCC(=O)N(CC1CCNCC1)c1ccc(Cl)c(Cl)c1 (as salt: salt) | 115 to 117
CC(=O)N(CC1CCNCC1)c1ccc(Cl)c(Cl)c1 (as salt: trifluoroacetic acid salt) | 172 to 174
CCC(=O)N(CC1CCNCC1)c1ccc2cc(OCc3ccccc3)ccc2c1.O=C(O)C(F)(F)F | 151 to 153

Other lines, results leading:

melting point [°C] | Compound
94 to 96 | CCC(=O)N(CC1CCNCC1)c1cccc(Cl)c1 (as salt: salt)
108 to 110 | CCC(=O)N(CC1CCNCC1)c1ccccn1 (as salt: trifluoroacetic acid salt)
98 to 100 | CCC(=O)N(CC1CCNCC1)c1ccccc1 (as salt: trifluoroacetic acid salt)
134 to 136 | CCC(=O)N(CC1CCNCC1)c1ccc(Cl)cn1 (as salt: trifluoroacetic acid salt)
